We go through 42 molecules from patent US20240398781A1, “SPIROCYCLIC CYCLIC MODULATORS OF CHOLESTEROL BIOSYNTHESIS AND THEIR USE FOR PROMOTING REMYELINATION” (GENENTECH, INC., priority 2021, published 2024).

Each structure is given as a SMILES string.

As a reminder, the Ki is the dissociation constant of the complex between target and ligand, obtained from inhibition or displacement. Read a high Ki as a looser hold on the target.

human emopamil binding protein and human 7-dehydrocholesterol reductase co-expressing cells (hEBP-DHCR7 membrane), sequence (Q15125 whole entry): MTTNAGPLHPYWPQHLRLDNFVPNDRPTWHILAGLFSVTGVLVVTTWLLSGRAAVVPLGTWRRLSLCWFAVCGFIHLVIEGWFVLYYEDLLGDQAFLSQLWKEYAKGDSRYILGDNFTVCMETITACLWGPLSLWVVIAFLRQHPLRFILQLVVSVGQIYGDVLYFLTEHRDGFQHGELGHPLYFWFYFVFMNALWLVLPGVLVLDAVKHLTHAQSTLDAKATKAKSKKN

The assay has as its target human emopamil binding protein and human 7-dehydrocholesterol reductase co-expressing cells (hEBP-DHCR7 membrane) (Homo sapiens (Human), UniProt Q15125). Nature of the assay: Radioligand filter binding assay on hEBP-DHCR7 membrane. The settings on record: [3H]-(S)-6-(2-Methyl-3-(6-(trifluoromethyl)pyridin-3-yl)propyl)-2-thia-6-azaspiro[3.4]octane 2,2-dioxide radioligand, HEK293 membrane co-expressing hEBP and hDHCR7. In a few lines:
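HEK293 cells transiently co-expressing human EBP and DHCR7 supplied whole-cell membranes (10 μg/well), incubated 3 h at 22 °C with [3H]-labelled spiro-octane dioxide ligand (added at 25 nM) and compound (0.06-5000 nM final, 8 doses, n=2). Bound ligand was collected on PEI-treated GF/B filters and counted by scintillation. IC50 was Hill-fitted from % inhibition and reported as Ki.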
Consider `O=S1(=O)CC2(CCN([C@H]3CCN(c4ccc(C(F)(F)F)nc4)C3)C2)C1` (single isomer, unassigned) [9A*], for which the Ki is 0.0583 µM. Next, `O=S1(=O)CC2(CCN([C@@H]3CCN(c4ccc(C(F)(F)F)nc4)C3)C2)C1` (single isomer, unassigned) [9B*]: 0.245 µM.

Regarding `CC(C)n1nc(C(F)(F)F)cc1[C@H]1CC[C@H](N2CCC3(C2)CS(=O)(=O)C3)C1` (single isomer, unassigned) [10A*], the Ki stood at 0.0187 µM. Molecule `CC(C)n1nc(C(F)(F)F)cc1[C@H]1CC[C@@H](N2CCC3(C2)CS(=O)(=O)C3)C1` (single isomer, unassigned) [10B*] gave a Ki of 0.0213 µM. In turn, `CC(C)n1nc(C(F)(F)F)cc1[C@@H]1CC[C@H](N2CCC3(C2)CS(=O)(=O)C3)C1` (single isomer, unassigned) [10C*] came in with a Ki of 0.0266 µM. Next, `O=S1(=O)CC2(CCN([C@@H]3CC[C@H](c4ccc(C(F)(F)F)nc4)C3)C2)C1` (single isomer, unassigned) [11C*]: 0.035 µM; `O=S1(=O)CC2(CCN(C3CC[C@H](c4ccc(C(F)(F)F)nc4)C3)C2)C1` (single isomer, unassigned) [11D*]: 0.04 µM. Then `CC(C)n1nc(-c2cncc(C(F)(F)F)c2)cc1[C@H]1CC[C@@H](N2CCC3(C2)CS(=O)(=O)C3)C1` (single isomer, unassigned) [13A*], with 0.0069 µM. Next, `CC(C)n1nc(-c2cncc(C(F)(F)F)c2)cc1[C@@H]1CC[C@H](N2CCC3(C2)CS(=O)(=O)C3)C1` (single isomer, unassigned) [13B*]: 0.015 µM; `CC(C)n1nc(-c2cncc(C(F)(F)F)c2)cc1[C@@H]1CC[C@@H](N2CCC3(C2)CS(=O)(=O)C3)C1` (single isomer, unassigned) [13C*]: 0.0235 µM. `CC(C)n1nc(-c2cncc(C(F)(F)F)c2)cc1[C@H]1CC[C@H](N2CCC3(C2)CS(=O)(=O)C3)C1` (single isomer, unassigned) [13D*] yielded a Ki of 0.019 µM.

Turning to `CC(C)n1nc(-c2ccc(C(F)(F)F)nc2)nc1[C@H]1CC[C@H](N2CCC3(C2)CS(=O)(=O)C3)C1` (single isomer, unassigned) [17B*], the affinity, expressed as Ki, was 0.036 µM.

Turning to `CC(C)n1nc(-c2ccc(C(F)(F)F)nc2)nc1[C@H]1CC[C@@H](N2CCC3(C2)CS(=O)(=O)C3)C1` (single isomer, unassigned) [17D*], the Ki is 0.064 µM. `CC(C)n1nc(C2CC2)nc1[C@@H]1CC[C@H](N2CCC3(C2)CS(=O)(=O)C3)C1` (single isomer, unassigned) [18A*] registered an inhibition constant Ki of 0.96 µM. The molecule `CC(C)n1nc(C2CC2)nc1[C@H]1CC[C@H](N2CCC3(C2)CS(=O)(=O)C3)C1` (single isomer, unassigned) [18B*, 6-(3-(3-cyclopropyl-1-isopropyl-1H-1,2,4-triazol-5-yl)cyclopentyl)-2-thia-6-azaspiro[3.4]octane 2,2-dioxide] came in with a Ki of 0.65 µM. The molecule `CC(C)n1nc(C2CC2)nc1[C@@H]1CC[C@@H](N2CCC3(C2)CS(=O)(=O)C3)C1` (single isomer, unassigned) [18C*] registered a Ki of 0.811 µM. As for `CC(C)n1nc(C2CC2)nc1[C@H]1CC[C@@H](N2CCC3(C2)CS(=O)(=O)C3)C1` (single isomer, unassigned) [18D*, 6-(3-(3-cyclopropyl-1-isopropyl-1H-1,2,4-triazol-5-yl)cyclopentyl)-2-thia-6-azaspiro[3.4]octane 2,2-dioxide], the Ki was found to be 1.18 µM. For `CC(C)n1cc(C(F)(F)F)nc1[C@H]1CC[C@H](N2CCC3(C2)CS(=O)(=O)C3)C1` (single isomer, unassigned) [20A*], the affinity, expressed as Ki, was 0.53 µM.

As to `CC(C)n1cc(C(F)(F)F)nc1[C@@H]1CC[C@@H](N2CCC3(C2)CS(=O)(=O)C3)C1` (single isomer, unassigned) [20B*], the affinity corresponds to a Ki of 0.13 µM. Then `CC(C)n1cc(C(F)(F)F)nc1[C@H]1CC[C@@H](N2CCC3(C2)CS(=O)(=O)C3)C1` (single isomer, unassigned) [20C*], with 0.42 µM. Regarding `CC(C)n1cc(C(F)(F)F)nc1[C@@H]1CC[C@H](N2CCC3(C2)CS(=O)(=O)C3)C1` (single isomer, unassigned) [20D*], the Ki came to 0.039 µM. `O=S1(=O)CC2(CCN([C@@H]3CCCN(c4ccc(C(F)(F)F)cc4)C3)C2)C1` (single isomer, unassigned) [22A*]: the Ki was found to be 0.014 µM. Next, `O=S1(=O)CC2(CCN([C@H]3CCCN(c4ccc(C(F)(F)F)cc4)C3)C2)C1` (single isomer, unassigned) [22B*]: 0.058 µM.

Take `Cn1nc(C(F)(F)F)cc1[C@H]1CC[C@H](N2CCC[C@@]3(CCS(=O)(=O)C3)C2)CC1` (single isomer, unassigned) [26A*]: the Ki turned out to be 0.025 µM.

Take `Cn1nc(C(F)(F)F)cc1[C@H]1CC[C@H](N2CCC[C@]3(CCS(=O)(=O)C3)C2)CC1` (single isomer, unassigned) [26B*]: the Ki was determined as 0.012 µM. The molecule `Cn1nc(C(F)(F)F)cc1[C@H]1CC[C@H](N2CC[C@@]3(CCS(=O)(=O)C3)C2)CC1` (single isomer, unassigned) [27A*] yielded a Ki of 0.26 µM. Next, `Cn1nc(C(F)(F)F)cc1[C@H]1CC[C@H](N2CC[C@]3(CCS(=O)(=O)C3)C2)CC1` (single isomer, unassigned) [27B*]: 0.18 µM. Next, `Cn1nc(C(F)(F)F)cc1[C@H]1CC[C@@H](N2CC[C@]3(CCS(=O)(=O)C3)C2)CC1` (single isomer, unassigned) [38A*]: 0.082 µM; `Cn1nc(C(F)(F)F)cc1[C@H]1CC[C@@H](N2CC[C@@]3(CCS(=O)(=O)C3)C2)CC1` (single isomer, unassigned) [38B*]: 0.05 µM.

As to `Cn1nc(C(F)(F)F)cc1[C@H]1CC[C@H](N2CC[C@]3(CCS(=O)(=O)C3)C2)CC1` (single isomer, unassigned) [38C*], the Ki is 0.26 µM. In turn, `Cn1nc(C(F)(F)F)cc1[C@H]1CC[C@H](N2CC[C@@]3(CCS(=O)(=O)C3)C2)CC1` (single isomer, unassigned) [38D*] displayed a Ki of 0.08 µM.

For the molecule `O=S1(=O)CC2(CCN([C@H]3CC[C@@H](c4ccc(C(F)(F)F)nc4)C3)C2)C1` (single isomer, unassigned) [Compound 11A, (Cis)-6-(3-(6-(Trifluoromethyl)pyridin-3-yl)cyclopentyl)-2-thia-6-azaspiro[3.4]octane 2,2-dioxide], the affinity, expressed as Ki, was 0.0378 µM. In turn, `O=S1(=O)CC2(CCN([C@@H]3CC[C@@H](c4ccc(C(F)(F)F)nc4)C3)C2)C1` (single isomer, unassigned) [Compound 11B, (Trans)-6-(3-(6-(Trifluoromethyl)pyridin-3-yl)cyclopentyl)-2-thia-6-azaspiro[3.4]octane 2,2-dioxide] had a Ki of 0.0359 µM. Next, `O=S1(=O)CC2(CCN([C@H]3CO[C@@H](c4ccc(C(F)(F)F)cc4)C3)C2)C1` (stereo in doubt) [19A*, 6-((3R,5R)-5-(4-(Trifluoromethyl)phenyl)tetrahydrofuran-3-yl)-2-thia-6-azaspiro[3.4]octane 2,2-dioxide]: 0.021 µM; `O=S1(=O)CC2(CCN([C@@H]3CO[C@@H](c4ccc(C(F)(F)F)cc4)C3)C2)C1` (stereo in doubt) [19B*, 6-((3S,5R)-5-(4-(trifluoromethyl)phenyl)tetrahydrofuran-3-yl)-2-thia-6-azaspiro[3.4]octane 2,2-dioxide]: 0.02 µM. Then `O=S1(=O)CC2(CCN([C@@H]3CO[C@H](c4ccc(C(F)(F)F)cc4)C3)C2)C1` (stereo in doubt) [19C*, 6-((3S,5S)-5-(4-(Trifluoromethyl)phenyl)tetrahydrofuran-3-yl)-2-thia-6-azaspiro[3.4]octane 2,2-dioxide], with 0.018 µM. Then `O=S1(=O)CC2(CCN([C@H]3CO[C@H](c4ccc(C(F)(F)F)cc4)C3)C2)C1` (stereo in doubt) [19D*, 6-((3R,5S)-5-(4-(trifluoromethyl)phenyl)tetrahydrofuran-3-yl)-2-thia-6-azaspiro[3.4]octane 2,2-dioxide], with 0.033 µM; and `CCn1nc(-c2ccc(C(F)(F)F)nc2)nc1[C@H]1CC[C@H](N2CCC3(C2)CS(=O)(=O)C3)CC1` [36A*, 6-((1r,4r)-4-(1-Ethyl-3-(6-(trifluoromethyl)pyridin-3-yl)-1H-1,2,4-triazol-5-yl)cyclohexyl)-2-thia-6-azaspiro[3.4]octane 2,2-dioxide], with 0.061 µM; and `CCn1nc(-c2ccc(C(F)(F)F)nc2)nc1[C@H]1CC[C@@H](N2CCC3(C2)CS(=O)(=O)C3)CC1` [36B*, 6-((1s,4s)-4-(1-ethyl-3-(6-(trifluoromethyl)pyridin-3-yl)-1H-1,2,4-triazol-5-yl)cyclohexyl)-2-thia-6-azaspiro[3.4]octane 2,2-dioxide], with 0.26 µM. `O=S1(=O)CC2(CCN([C@@H]3CC[C@@H](c4ccc(C(F)(F)F)cc4)C3)C2)C1` [Compound 1B, 6-((1R,3R)-3-(4-(trifluoromethyl)phenyl)cyclopentyl)-2-thia-6-azaspiro[3.4]octane 2,2-dioxide]: the affinity corresponds to a Ki of 0.0268 µM.

For `Cn1nc(C(F)(F)F)cc1[C@H]1CC[C@@H](N2CCC3(C2)CS(=O)(=O)C3)CC1` [Compound 2A, 6-((1s,4s)-4-(1-methyl-3-(trifluoromethyl)-1H-pyrazol-5-yl)cyclohexyl)-2-thia-6-azaspiro[3.4]octane 2,2-dioxide], the Ki was 0.0445 µM.

`Cn1nc(C(F)(F)F)cc1[C@H]1CC[C@H](N2CCC3(C2)CS(=O)(=O)C3)CC1` [Compound 2B, 6-((1r,4r)-4-(1-methyl-3-(trifluoromethyl)-1H-pyrazol-5-yl)cyclohexyl)-2-thia-6-azaspiro[3.4]octane 2,2-dioxide] returned a Ki of 0.0693 µM.
